Source: patent US20240327412A1, “FACTOR XIIA INHIBITORS” (KALVISTA PHARMACEUTICALS LIMITED, priority 2021, published 2024)

Target: T1, Human Factor XIIa (Homo sapiens, UniProt P00748)
T1 construct: Proteolytic cleavage of FXII to heavy and light chains of FXIIa dramatically increases catalytic activity; purchased Enzyme Research Laboratories
T1 sequence (P00748 373-615 limits assumed): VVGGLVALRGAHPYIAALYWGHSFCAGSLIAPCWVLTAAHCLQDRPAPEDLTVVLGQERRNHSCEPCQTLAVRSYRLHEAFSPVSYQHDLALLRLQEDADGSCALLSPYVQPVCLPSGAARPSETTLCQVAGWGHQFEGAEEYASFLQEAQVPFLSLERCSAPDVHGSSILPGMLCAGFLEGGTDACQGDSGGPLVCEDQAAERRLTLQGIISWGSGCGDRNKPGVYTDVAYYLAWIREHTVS
T1 sequence (P00748 20-372 partner limits assumed): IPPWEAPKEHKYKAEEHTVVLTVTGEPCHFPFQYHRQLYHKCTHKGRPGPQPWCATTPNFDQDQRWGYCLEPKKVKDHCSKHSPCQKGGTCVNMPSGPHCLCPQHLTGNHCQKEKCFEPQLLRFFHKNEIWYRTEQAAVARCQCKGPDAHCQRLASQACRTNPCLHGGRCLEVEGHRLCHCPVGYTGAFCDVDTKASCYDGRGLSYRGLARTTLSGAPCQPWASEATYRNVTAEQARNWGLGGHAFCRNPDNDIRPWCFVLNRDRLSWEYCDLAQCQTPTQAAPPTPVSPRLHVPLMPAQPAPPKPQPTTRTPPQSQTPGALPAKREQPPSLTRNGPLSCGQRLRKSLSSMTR
Test: Determination of FXIIa inhibition (fluorogenic substrate H-DPro-Phe-Arg-AFC, IC50 assay)
Format: biochemical
Details: substrate at Km concentration, 25° C.; category scale; read-out: Human FXII IC50 (nm)
Protocol: In vitro inhibition of Factor XIIa was determined using an IC50 assay based on standard literature methods (see e.g Baeriswyl et al., ACS Chem. Biol., 2015, 10 (8) 1861; Bouckaert et al., European Journal of Medicinal Chemistry 110 (2016) 181). Human Factor XIIa (Enzyme Research Laboratories) was incubated at 25° C. with the fluorogenic substrate H-DPro-Phe-Arg-AFC (Peptide Protein Science) and various concentrations of the test compound. Protease activity was measured by monitoring the accumulation of liberated fluorescence from the substrate over 5 min at 25° C. The linear rate of fluorescence increase per minute was expressed as percentage (%) activity. The Km for the cleavage of the substrate by FXIIa was determined by standard transformation of the Michaelis-Menten equation. The compound inhibitor assays were performed at substrate Km concentration. IC50 values were calculated as the concentration of inhibitor giving 50% inhibition (IC50) of the uninhibited enzyme activity (100%).

SMILES	IC50
Cn1ccc(OCC23CN(C(=O)CCc4cccc(C#N)c4)C(CNc4cccc5c(N)nccc45)(C2)C3)cc1=O [Example 12044, 3-(3-(1-(((1-aminoisoquinolin-5-yl)amino)methyl)-4-(((1-methyl-2-oxo-1,2-dihydropyridin-4-yl)oxy)methyl)-2-azabicyclo[2.1.1]hexan-2-yl)-3-oxopropyl)benzonitrile]	10 to 100 nM
Cn1cc(Cl)c(OCC23CCOC(CNc4cccc5c(N)nccc45)(C2)C3)cc1=O [Example 10933, 4-((1-(((1-aminoisoquinolin-5-yl)amino)methyl)-2-oxabicyclo[3.1.1]heptan-5-yl)methoxy)-5-chloro-1-methylpyridin-2(1H)-one]	1000 to 3000 nM
Cn1ccc(OCC23CC(CNc4cccc5c(N)nccc45)(CN2C(=O)OCc2ccccn2)C3)cc1=O [Example 13013, pyridin-2-ylmethyl 4-(((1-aminoisoquinolin-5-yl)amino)methyl)-1-(((1-methyl-2-oxo-1,2-dihydropyridin-4-yl)oxy)methyl)-2-azabicyclo[2.1.1]hexane-2-carboxylate]	100 to 300 nM
Nc1nccc2c(NCC34CC(COc5ccn6c(C(F)(F)F)nnc6c5)(CCO3)C4)cccc12 [Example 10961, N5-((5-(((3-(trifluoromethyl)-[1,2,4]triazolo[4,3-a]pyridin-7-yl)oxy)methyl)-2-oxabicyclo[3.1.1]heptan-1-yl)methyl)isoquinoline-1,5-diamine]	300 to 1000 nM
Nc1nccc2c(NCC34CC(Cn5cccn5)(CO3)C4)cccc12 [Example 6645, N5-((4-((1H-pyrazol-1-yl)methyl)-2-oxabicyclo[2.1.1]hexan-1-yl)methyl)isoquinoline-1,5-diamine]	10000 to 40000 nM
Cc1cc(OCC23CC(CNc4cccc5c(N)nccc45)(C2)C3)cc(=O)n1C [Example 1134, 4-((3-(((1-aminoisoquinolin-5-yl)amino)methyl)bicyclo[1.1.1]pentan-1-yl)methoxy)-1,6-dimethylpyridin-2(1H)-one]	100 to 300 nM
Nc1nccc2c(NCC34CC(CN5CCCC5=O)(CO3)C4)cccc12 [Example 6649, 1-((1-(((1-aminoisoquinolin-5-yl)amino)methyl)-2-oxabicyclo[2.1.1]hexan-4-yl)methyl)pyrrolidin-2-one]	10000 to 40000 nM
Cc1cn(C)c(=O)nc1OCC12CCOC(CNc3cccc4c(N)nccc34)(C1)C2 [Example 10962, 4-((1-(((1-aminoisoquinolin-5-yl)amino)methyl)-2-oxabicyclo[3.1.1]heptan-5-yl)methoxy)-1,5-dimethylpyrimidin-2(1H)-one]	1000 to 3000 nM
Cn1ccc(OCC23CC(CNc4cccc5c(N)nccc45)(CN2C(=O)Cc2ccccc2)C3)cc1=O [Example 13021, 4-((4-(((1-aminoisoquinolin-5-yl)amino)methyl)-2-(2-phenylacetyl)-2-azabicyclo[2.1.1]hexan-1-yl)methoxy)-1-methylpyridin-2(1H)-one]	300 to 1000 nM
Cn1ccc(OCC23CC(CNc4cccc5c(N)nccc45)(CN2C(=O)Oc2ccccc2)C3)cc1=O [Example 13006, phenyl 4-(((1-aminoisoquinolin-5-yl)amino)methyl)-1-(((1-methyl-2-oxo-1,2-dihydropyridin-4-yl)oxy)methyl)-2-azabicyclo[2.1.1]hexane-2-carboxylate]	10 to 100 nM
Cn1ccc(OCC23CC(CNc4cccc5c(N)nccc45)(CN2C(=O)CCc2cccnc2)C3)cc1=O [Example 13010, 4-((4-(((1-aminoisoquinolin-5-yl)amino)methyl)-2-(3-(pyridin-3-yl)propanoyl)-2-azabicyclo[2.1.1]hexan-1-yl)methoxy)-1-methylpyridin-2(1H)-one]	100 to 300 nM
Cn1ccc(OCC23CC(CNc4cccc5c(N)nccc45)(CN2c2nc4ccccc4o2)C3)cc1=O [Example 13018, 4-[[4-[[(1-aminoisoquinolin-5-yl)amino]methyl]-2-(1,3-benzoxazol-2-yl)-2-azabicyclo[2.1.1]hexan-1-yl]methoxy]-1-methylpyridin-2-one]	300 to 1000 nM
COc1ccc(NC(=O)N2CC3(COc4ccn(C)c(=O)c4)CC2(CNc2cccc4c(N)nccc24)C3)cc1 [Example 12061, 1-(((1-Aminoisoquinolin-5-yl)amino)methyl)-N-(4-methoxyphenyl)-4-(((1-methyl-2-oxo-1,2-dihydropyridin-4-yl)oxy)methyl)-2-azabicyclo[2.1.1]hexane-2-carboxamide]	1 to 10 nM
CN1CCc2cc(OCC34COC(CNc5cccc6c(N)nccc56)(C3)C4)ccc2C1=O [Example 6640, 6-((1-(((1-aminoisoquinolin-5-yl)amino)methyl)-2-oxabicyclo[2.1.1]hexan-4-yl)methoxy)-2-methyl-3,4-dihydroisoquinolin-1(2H)-one]	100 to 300 nM
Cc1cccc(OCC23CCOC(CNc4cccc5c(N)nccc45)(C2)C3)n1 [Example 10957, N5-((5-(((6-methylpyridin-2-yl)oxy)methyl)-2-oxabicyclo[3.1.1]heptan-1-yl)methyl)isoquinoline-1,5-diamine]	3000 to 10000 nM
Cn1ccc(OCC23CN(C(=O)CCc4cccc(C(F)F)c4)C(CNc4cccc5c(N)nccc45)(C2)C3)cc1=O [Example 12048, 4-((1-(((1-aminoisoquinolin-5-yl)amino)methyl)-2-(3-(3-(difluoromethyl)phenyl)propanoyl)-2-azabicyclo[2.1.1]hexan-4-yl)methoxy)-1-methylpyridin-2(1H)-one]	10 to 100 nM
Nc1nccc2c(NCC34CC(COc5ccncn5)(CCO3)C4)cccc12 [Example 10937, N5-((5-((pyrimidin-4-yloxy)methyl)-2-oxabicyclo[3.1.1]heptan-1-yl)methyl)isoquinoline-1,5-diamine]	3000 to 10000 nM
Cn1ccc(OCC23CC(CNc4cccc5c(N)nccc45)(CN2C(=O)OCc2cccnc2)C3)cc1=O [Example 13009, Pyridin-3-ylmethyl4-(((1-aminoisoquinolin-5-yl)amino)methyl)-1-(((1-methyl-2-oxo-1,2-dihydropyridin-4-yl)oxy)methyl)-2-azabicyclo[2.1.1]hexane-2-carboxylate]	10 to 100 nM
Cn1ccc(OCC23CC(CNc4cccc5c(N)nccc45)(CN2C(=O)Oc2ccccc2Cl)C3)cc1=O [Example 13004, 2-chlorophenyl 4-(((1-aminoisoquinolin-5-yl)amino)methyl)-1-(((1-methyl-2-oxo-1,2-dihydropyridin-4-yl)oxy)methyl)-2-azabicyclo[2.1.1]hexane-2-carboxylate]	100 to 300 nM
Cn1cc(COC(=O)N2CC3(CNc4cccc5c(N)nccc45)CC2(COc2ccn(C)c(=O)c2)C3)cn1 [Example 13022, (1-methyl-1H-pyrazol-4-yl)methyl 4-(((1-aminoisoquinolin-5-yl)amino)methyl)-1-(((1-methyl-2-oxo-1,2-dihydropyridin-4-yl)oxy)methyl)-2-azabicyclo[2.1.1]hexane-2-carboxylate]	10 to 100 nM
Cc1cnc2ccc(OCC34COC(CNc5ccccc5CC(F)(F)F)(C3)C4)cn12 [Example 6659, N-((4-(((3-methylimidazo[1,2-a]pyridin-6-yl)oxy)methyl)-2-oxabicyclo[2.1.1]hexan-1-yl)methyl)-2-(2,2,2-trifluoroethyl)aniline]	40000 to 100000 nM
Cn1ccc(OCC23CN(C(=O)CCc4cccc(Cl)c4)C(CNc4cccc5c(N)nccc45)(C2)C3)cc1=O [Example 12049, 4-((1-(((1-aminoisoquinolin-5-yl)amino)methyl)-2-(3-(3-chlorophenyl)propanoyl)-2-azabicyclo[2.1.1]hexan-4-yl)methoxy)-1-methylpyridin-2(1H)-one]	10 to 100 nM
Nc1nccc2c(NCC34CC(Cn5ccnn5)(CO3)C4)cccc12 [Example 6648, N5-((4-((1H-1,2,3-triazol-1-yl)methyl)-2-oxabicyclo[2.1.1]hexan-1-yl)methyl)isoquinoline-1,5-diamine]	10000 to 40000 nM
Cn1ccc(OCC23CN(C(=O)Oc4ccccc4Cl)C(CNc4cccc5c(N)nccc45)(C2)C3)cc1=O [Example 12015, 2-chlorophenyl 1-(((1-aminoisoquinolin-5-yl)amino)methyl)-4-(((1-methyl-2-oxo-1,2-dihydropyridin-4-yl)oxy)methyl)-2-azabicyclo[2.1.1]hexane-2-carboxylate]	10 to 100 nM
Nc1nccc2c(NCC34CC(COc5ccc6c(c5)CNC6=O)(CCO3)C4)cccc12 [Example 10931, 5-((1-(((1-aminoisoquinolin-5-yl)amino)methyl)-2-oxabicyclo[3.1.1]heptan-5-yl)methoxy)isoindolin-1-one]	10 to 100 nM
